Measurements from ChEMBL document CHEMBL1201862, “PubChem BioAssay data set” (2004).
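Each compound was tested at five concentrations against cells in 96-well plates for 48 hours. The concentration for 50% growth inhibition is given as GI50.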 The source made the active and inactive calls. Rule as the data show it: active = GI50 up to about 1.1 µM and inactive = higher.

Columns and labels:
Experiment in all cases: NCI-60 cell line screen, 48 h
SNB-75 = tested on: SNB-75
UO-31 = tested on: UO-31
SW-620 = tested on: SW-620
SK-MEL-28 = tested on: SK-MEL-28
OVCAR-4 = tested on: OVCAR-4
SNB-19 = tested on: SNB-19
SF-268 = tested on: SF-268
BT-549 = tested on: BT-549
NCI/ADR-RES = tested on: NCI/ADR-RES
LOX IMVI = tested on: LOX IMVI
SF-295 = tested on: SF-295
SK-OV-3 = tested on: SK-OV-3
OVCAR-3 = tested on: OVCAR-3
T47D = tested on: T47D
ACHN = tested on: ACHN
PC-3 = tested on: PC-3
MDA-MB-231 = tested on: MDA-MB-231
MCF7 = tested on: MCF7
SF-539 = tested on: SF-539
HCC 2998 = tested on: HCC 2998

Structure (SMILES) | GI50 (SNB-75) | GI50 (UO-31) | GI50 (SW-620) | GI50 (SK-MEL-28) | GI50 (OVCAR-4) | GI50 (SNB-19) | GI50 (SF-268) | GI50 (BT-549) | GI50 (NCI/ADR-RES) | GI50 (LOX IMVI) | GI50 (SF-295) | GI50 (SK-OV-3) | GI50 (OVCAR-3) | GI50 (T47D) | GI50 (ACHN) | GI50 (PC-3) | GI50 (MDA-MB-231) | GI50 (MCF7) | GI50 (SF-539) | GI50 (HCC 2998)
Nc1cccc(OCc2nc(N)nc(N)c2-c2ccc(Cl)cc2)c1 | 32.2 µM (inactive) | 36.3 µM (inactive) | 50.6 µM (inactive) | 70 µM (inactive) | 49.7 µM (inactive) | > 100 µM (inactive) | 60 µM (inactive) | 36.1 µM (inactive) | 44 µM (inactive) | 52.5 µM (inactive) | 64.1 µM (inactive) | 89.1 µM (inactive) | > 100 µM (inactive) | 35.8 µM (inactive) | 44.3 µM (inactive) | 41.3 µM (inactive) | > 100 µM (inactive) | 37.8 µM (inactive) | – | –
COc1ccc2oc(=N)c(C(=O)NCc3ccccc3)cc2c1 | 15.3 µM (inactive) | 46.6 µM (inactive) | 19 µM (inactive) | 26.2 µM (inactive) | 34.8 µM (inactive) | 27.4 µM (inactive) | 18.8 µM (inactive) | 17.7 µM (inactive) | 14.9 µM (inactive) | 38.6 µM (inactive) | 24.7 µM (inactive) | 20.3 µM (inactive) | 18.8 µM (inactive) | 15 µM (inactive) | 13.3 µM (inactive) | 30.5 µM (inactive) | 23.3 µM (inactive) | 24 µM (inactive) | 25.2 µM (inactive) | –
CC(NC(=O)C(Cc1ccc(OC(=O)c2ccccc2)cc1)NC(=O)OC(C)(C)C)C(=O)NCC(=O)NC(Cc1ccccc1)NC(=O)OCc1ccccc1 (stereo unspecified) | > 100 µM (inactive) | > 100 µM (inactive) | > 100 µM (inactive) | > 100 µM (inactive) | 15.8 µM (inactive) | > 100 µM (inactive) | > 100 µM (inactive) | > 100 µM (inactive) | > 10 µM (inactive) | > 100 µM (inactive) | > 100 µM (inactive) | > 100 µM (inactive) | > 100 µM (inactive) | > 100 µM (inactive) | > 100 µM (inactive) | > 100 µM (inactive) | > 100 µM (inactive) | > 100 µM (inactive) | > 100 µM (inactive) | –
COc1ccc(N2C(=O)C3c4[nH]c5ccccc5c4C4CCC(c5ccccc5)CC4C3C2=O)cc1 (stereo unspecified) | 6.04 µM (inactive) | 46.8 µM (inactive) | > 32.7 µM (inactive) | > 54.6 µM (inactive) | 8.87 µM (inactive) | 12.5 µM (inactive) | 10.4 µM (inactive) | 31.4 µM (inactive) | > 34.2 µM (inactive) | > 32.5 µM (inactive) | 22.9 µM (inactive) | 20.2 µM (inactive) | > 64 µM (inactive) | > 66.4 µM (inactive) | 12.3 µM (inactive) | 36.2 µM (inactive) | 10.9 µM (inactive) | 39 µM (inactive) | 1.48 µM (inactive) | –
O=S(=O)(O)c1ccc2c(/N=N/c3ccc(/N=N/c4ccccc4)cc3)c(O)c(S(=O)(=O)O)cc2c1 | – | > 100 µM (inactive) | > 100 µM (inactive) | > 100 µM (inactive) | > 100 µM (inactive) | > 100 µM (inactive) | > 100 µM (inactive) | > 100 µM (inactive) | > 100 µM (inactive) | – | > 100 µM (inactive) | > 100 µM (inactive) | > 100 µM (inactive) | > 100 µM (inactive) | > 100 µM (inactive) | > 100 µM (inactive) | > 100 µM (inactive) | > 100 µM (inactive) | > 100 µM (inactive) | > 100 µM (inactive)
CCC(O)CC1OC2(CCC1C)CC1OC(=O)/C=C\C(C)(O)C(O)C(C)C(O)C(OC3CC(OC)C(O)C(C)O3)C(O)C(C)(O)CCC/C=C/C3CC(C)COC3(O)CC(O2)C1C (stereo unspecified) | 2.37 µM (inactive) | 11.2 µM (inactive) | 14.8 µM (inactive) | 13.8 µM (inactive) | – | 0.0743 µM (active) | 17.8 µM (inactive) | 3.66 µM (inactive) | 1.67 µM (inactive) | 11.8 µM (inactive) | < 0.016 µM (active) | 26.6 µM (inactive) | 0.585 µM (active) | < 0.0107 µM (active) | 7.24 µM (inactive) | < 0.0251 µM (active) | 12 µM (inactive) | < 0.01 µM (active) | 17.3 µM (inactive) | 15.7 µM (inactive)
CC1=NN=C(N)N/C1=C\C(Sc1ccc(Cl)cc1)c1ccc([N+](=O)[O-])cc1 (stereo unspecified) | – | 28.3 µM (inactive) | 85.3 µM (inactive) | > 100 µM (inactive) | > 100 µM (inactive) | > 100 µM (inactive) | 47.4 µM (inactive) | 80 µM (inactive) | > 100 µM (inactive) | 51.8 µM (inactive) | > 100 µM (inactive) | > 100 µM (inactive) | – | > 100 µM (inactive) | 58.9 µM (inactive) | 66.7 µM (inactive) | > 100 µM (inactive) | 57.9 µM (inactive) | – | > 100 µM (inactive)
Nc1ccc2c(c1)C1Oc3ccccc3CC1CO2 (stereo unspecified) | – | > 100 µM (inactive) | > 100 µM (inactive) | – | – | – | > 100 µM (inactive) | 74.6 µM (inactive) | > 100 µM (inactive) | > 100 µM (inactive) | > 100 µM (inactive) | > 100 µM (inactive) | > 100 µM (inactive) | 76 µM (inactive) | – | > 100 µM (inactive) | > 100 µM (inactive) | > 100 µM (inactive) | > 100 µM (inactive) | > 100 µM (inactive)
OC(c1nc2ccccc2[nH]1)C(O)C(O)C(O)c1nc2ccccc2[nH]1 (stereo unspecified) | > 100 µM (inactive) | > 100 µM (inactive) | > 100 µM (inactive) | > 100 µM (inactive) | > 100 µM (inactive) | > 100 µM (inactive) | > 100 µM (inactive) | > 100 µM (inactive) | > 100 µM (inactive) | > 100 µM (inactive) | > 100 µM (inactive) | > 100 µM (inactive) | > 100 µM (inactive) | > 100 µM (inactive) | > 100 µM (inactive) | > 100 µM (inactive) | > 100 µM (inactive) | > 100 µM (inactive) | > 100 µM (inactive) | –
Nc1nc(O)c2ncn(C3C=CC(CO)C3)c2n1 (stereo unspecified) | > 100 µM (inactive) | > 100 µM (inactive) | > 100 µM (inactive) | > 100 µM (inactive) | > 100 µM (inactive) | > 100 µM (inactive) | > 100 µM (inactive) | > 100 µM (inactive) | > 100 µM (inactive) | – | > 100 µM (inactive) | > 100 µM (inactive) | > 100 µM (inactive) | > 100 µM (inactive) | > 100 µM (inactive) | > 100 µM (inactive) | > 100 µM (inactive) | > 100 µM (inactive) | > 100 µM (inactive) | > 100 µM (inactive)
Cc1cc2cc3cc(C)c(N)cc3nc2cc1N [ACRIDINE YELLOW] | 1.53 µM (inactive) | 0.979 µM (active) | 0.321 µM (active) | 1.51 µM (inactive) | 0.566 µM (active) | 0.716 µM (active) | 0.593 µM (active) | 5.52 µM (inactive) | 2.13 µM (inactive) | 0.478 µM (active) | 0.693 µM (active) | 1.34 µM (inactive) | 0.522 µM (active) | 0.865 µM (active) | 0.365 µM (active) | 1.06 µM (active) | 0.211 µM (active) | 0.475 µM (active) | 1.01 µM (active) | –
